This note sets out measurements from paper PMC12388980, “Development of AGT-7: An Innovative ^99mTc-Labeled Theranostic Platform for Glioblastoma Imaging and Therapy” (Pharmaceuticals, 2025).

In data set [1] the test system is T98 cells. The experiment in a line: Trypan blue exclusion cytotoxicity assay, T98 cells. The data set is classed as cell-based. The settings on record: Homo sapiens, T98 cell line, 72 h post-treatment. As to the method: (§1) To explore the effect of AGT-7 on the viability of GBM cell lines, T98 and U87 cells were cultured with escalating concentrations of the compounds for 72 h, and afterward, the trypan blue exclusion assay was carried out.
(§2) The sensitivity of T98 and U87 cells to the compound was assessed using the trypan blue exclusion test. A total of 20,000 cells were seeded onto 12-well plates and incubated in a humidified atmosphere. After 24 h, cells were treated with the compound at concentrations of 20–100 μM for 72 h followed by trypan blue exclusion analysis. The results were derived as the mean of three independent experiments.
(§3) Figure 3 Cytotoxic effect of AGT-7 on T98 (A) and U87 cell lines (B) 72 h after treatment. The results are the average of three independent experiments and are standardized to untreated cells. The IC50 values were calculated using the GraphPad Prism Version 6 non-linear regression analysis model.
(§4) Figure 4 Cytotoxic effect of AGT-7 and TMZ on T98 (A) and U87 cell lines (B) 72 h after treatment. The results are the average of three independent experiments and are standardized to untreated cells. The IC50 values were calculated using the GraphPad Prism Version 6 non-linear regression analysis model.

Data set [2] concerns U87 cells. Briefly: Trypan blue exclusion cytotoxicity assay, U87 cells. The data set is classed as cell-based. The settings on record: Homo sapiens, U-87 MG, U87 cell line, 72 h post-treatment. As to the method:
as §1, §2, §3, §4

The subject of data set [3] is T98 cells. Briefly: Flow cytometric analysis of DNA cell cycle, T98 cells. The settings on record: treated at IC50 for 72 h. The data set is classed as cell-based. As for the experimental part:
(§5) Subsequently, cells were washed with phosphate-buffered saline (PBS) solution, harvested by incubation with trypsin, and held at 37 °C for 20 min with a PI working solution ([…], and 0.1% Triton X-100). PI fluorescence data were collected using a flow cytometer (Cytognos S.L., Polígono La Serna, Nave 9, 37900 Santa Marta de Tormes, Salamanca, Spain) and were analyzed using GraphPad Prism Version 6 software and MedCalc software (trial version).
(§6) Figure 5 Graphical representation of cell cycle distribution in T98 (A) and U87 (B) cell lines after treatment with AGT-7 in IC50 concentration. Experiment was carried out three times, and values are means of three repetitions.

In data set [4] the test system is U87 cells. Briefly: Flow cytometric analysis of DNA cell cycle, U87 cells. Particulars: treated at IC50 for 72 h. The class given is cell-based. As to the method:
as §5, §6

Data set [5] relates to zebrafish (Danio rerio) embryos. Briefly: Acute toxicity test in zebrafish embryos (OECD 2010). The data set is classed as in vivo. The settings on record: 96 hpf. As to the method:
Prior to advancing the biological evaluation of AGT-7, it was essential to assess its in vivo acute toxicity. To this end, we employed a standard acute exposure assay using zebrafish (Danio rerio) embryos as a vertebrate model system. Drug exposure was for 96 h post-fertilization (hpf), following the guidelines established by the Organisation for Economic Co-operation and Development (OECD, 2010) for fish embryo toxicity testing. […] This alignment between therapeutically effective concentrations and sub-lethal doses in vivo underscores a favorable safety profile for AGT-7 and supports its further preclinical development.
Adult zebrafish specimens of the wild-type strain (AB) were maintained in a colony room, in a recirculated system, at 28 ± 1 °C, pH 6.5–7.5, and water conductivity of 500 ± 50 μS cm−1 with a 14 h light/10 h dark photoperiod (lights on at 8:00 a.m.). Feeding of the fish was performed twice a day with zebrafish feed (Zebrafeed, Sparos, […]) following common practices. Sexually mature zebrafish (at least three months old) were used for spawning.
The collection of zebrafish eggs was performed at the beginning of the 14 h light phase following the mating procedure that took place overnight. […] The dechorionation process of the eggs followed at 24 h post-fertilization (hpf).
The dechorionated embryos were placed in 24-well culture plates (2 embryos per well, 1.5 mL of solution per well), and each experiment was performed in triplicate. Preliminary tests were performed to evaluate the range of 0–100% mortality. DMSO (0.1%) was used as dissolver and as well as vehicle control (non-exposed). In the current study, seven different concentrations of AGT-7 were tested (0.0, 10.0, 20.0, 40.0, 60.0, 80.0, and 100.0 μΜ). In total, 881 embryos were studied, of which 96 belonged to the non-exposed group. […] Each experiment lasted 96 h post fertilization time (hpf) and began at 24 hpf, approximately at the 26-somite point, according to Kimmel et al..
It is essential to apply an acute test that uses short-term exposure (96hpf) to AGT-7 and then to determine the concentration that is lethal to 50% of zebrafish embryos. This is a valuable indicator of acute fish toxicity. According to OECD 2010, indications of death of an embryo include coagulation of the embryo, lack of somite formation, non-detachment of the tail, and/or lack of heartbeat.
Toxicity assays (LD50 values) and confidence limits (LD25 and LD75) were calculated based on cumulative mortality at the end of the experiment (96 hpf). The LD50 values were assessed using Regression Probit analysis (the chi-square test, Pearson goodness of fit test, and 95% confidence interval).

Data set [6] can be described thus: LC-MS-based plasma stability in human plasma. The class given is in vitro ADME. Particulars: 1 μM, 37 °C, 9-h incubation period, compared to TMZ. As to the method: Plasma samples were diluted 1:1 (v/v) with phosphate buffer (pH 7.4). […] The mixtures were vortexed vigorously and incubated at 37 °C on a thermoshaker (Kisker Biotech, Steinfurt, Germany) at 600 rpm. Reactions were terminated at 0, 1, 2, 3, 4, 6, 9, and 24 h by transferring 150 μL of the incubated plasma into 450 μL of ice-cold ACN. After vortexing, samples were stored at −20 °C for 30 min and centrifuged, and 200 μL of the supernatant was diluted with 600 μL of water. The resulting solution was filtered through a 0.22 μm nylon syringe filter (Target Analysis, Thessaloniki, Greece) into 2 mL glass vials before analysis.
The mobile phase consisted of (A) 0.1% formic acid in water and (B) 0.05% formic acid in ACN, delivered constantly at 0.2 mL/min. The gradient program was optimized as follows: 1% B (0.00–3.00 min), linear ramp to 100% B (3.00–10.00 min), hold at 100% B (10.00–12.00 min), return to initial conditions (12.00–12.01 min), and re-equilibration at 1% B (12.01–15.00 min). […]
Full-scan MS data were acquired in MS^E mode with two alternating collision energy functions: low energy (4 eV) for precursor ions and ramped high energy (25–45 eV) for fragment ions. […] System control and data acquisition were managed using MassLynx v4.2 (SCN 1029), while UNIFI v1.9.4.053 facilitated data processing, including adduct identification ([M+H]⁺, [M+Na]⁺, [M+H2]^2+) and relative quantitation. […]

As to `Cn1nnc2c(C(N)=O)ncn2c1=O` [TMZ, temozolomide, reference compound], the IC50 in data set [1] was determined as 143 µM; in data set [2] it was 50 µM.
`Cn1nnc2c(C(=O)NCCCCN(Cc3ccccn3)Cc3ccccn3)ncn2c1=O` [AGT-7]: the midpoint of inhibition in data set [1], the IC50, lay at 27 µM. The “effect on cell cycle progression” value in data set [3] was “no significant effect on cell cycle progression”. Moreover, in data set [4], the “effect on cell cycle progression” value is on record as “no significant effect on cell cycle progression”. Besides, in data set [5], the LD25 was 35.54 µM, the LD75 came to 61.64 µM and the “concentrations with no significant mortality” value is given as “up to 30 μM”. In data set [5] (cumulative mortality, probit analysis), the LD50 came to 46.81 µM. The plasma stability profile result in data set [6] is reported as “very similar to that of the parent drug, TMZ”. For the same compound, in data set [2], the IC50 was found to be 30 µM.
